This is an account of results in ChEMBL document CHEMBL1857833, “Screening and optimization of specific chemical series against human African Trypanosomiasis (HAT)”.

The structures appear in SMILES notation. In brackets after ≈: the same amount, converted by molar mass. Several values for one entry are separate records, joined by “and”; a condition that tells them apart may be missing. Identical values can stand only once. Where only a bound is given, the exact number is not on record here.

Data set [1] concerns Trypanosoma brucei. The experiment in a line: DNDI: Inhibition of Human African Trypanosomiasis, Cross 22, in vitro. Format: functional, organism-based.
A short description of data set [2]: DNDI: Cytotoxicity against L929 mouse fibroblasts, 72 hour. It counts as toxicity, cell-based. Conditions: mouse, L929 mouse fibroblasts.
The nature of data set [3]: DNDI: Cytotoxicity against L929 mouse fibroblasts, CYTO-SP, 24 hour. Format: toxicity, cell-based. To be noted: mouse, L929 mouse fibroblasts.
The conditions of data set [4]: mouse, microsomes, 1 µM.
Description: DNDI: in vitro intrinsic clearance in mouse liver microsomes at a concentration of 1uM
In data set [5] the test system is Trypanosoma brucei. The experiment in a line: DNDI: Inhibition of Human African Trypanosomiasis, SBRI 427, in vitro. It counts as functional, organism-based.
For data set [6] the following is noted: mouse, microsomes, 1 µM. This is another data set of the same source.
Description: (§2) DNDI: half life in mouse liver microsomes at a concentration of 1uM
A short description of data set [7]: in vitro. To be noted: mouse, liver microsomes, t (1 / 2). Background: Microsomes from liver hold many membrane-bound enzymes, among them those of drug oxidation.
Description: as §2
Data set [8] is described as follows: DNDI: Solubility in phosphate buffered saline at pH7.4 measured by nephelometry at room temperature (NEPH-RT). Format: physicochemical. Conditions: pH 7.4.
The test system of data set [9] is Trypanosoma brucei. Kind of data set: (§1) DNDI: Mean survival time in days (MSD) of mice after intraperitoneal injection of Human African Trypanosomiasis (HAT), EATRO 110, in vivo at 20 mg/kg/day for 4 days. It counts as functional, Mus musculus.
In data set [10] the test system is Trypanosoma brucei. The data set is described as §1. Format: functional, Mus musculus. This is another data set of the same source.
Data set [11] is described as follows: DNDI: % of compound remaining in rat S9 microsomes at a concentration of 1uM. Format: ADME, subcellular, Liver, S9 fraction.
The nature of data set [12]: DNDI: Lipophilicity measured in Chromatographic hydrophobicity index (CHI) assay, pH 7.4. To be noted: buffer. It counts as physicochemical.
Data set [13] can be described thus: DNDI: % of compound remaining in mouse S9 microsomes at a concentration of 1uM after 60 mins. It counts as ADME, subcellular, Liver, S9 fraction.
A short description of data set [14]: DNDI: Solubility in phosphate buffered saline at pH7.4 measured by optical density (turbidimetry) at room temperature (OD-RT). It counts as physicochemical. To be noted: pH 7.4.
The test system of data set [15] is Plasmodium falciparum. The experiment in a line: DNDI: Inhibition of the malaria parasite Plasmodium falciparum, in vitro. Format: functional, organism-based. Conditions: K1.
A short description of data set [16]: DNDI: Cytotoxicity against L-6 rat myoblasts from skeletal muscle cells. Format: toxicity, cell-based, L6. Conditions: L-6 rat skeletal muscle myoblasts.
Data set [17] is described as follows: DNDI: in vitro intrinsic clearance in mouse liver microsomes at a concentration of 10uM. It counts as ADME, Microsome. To be noted: read-out: CLint in vitro.
The nature of data set [18]: DNDI: in vitro intrinsic clearance in human liver microsomes at a concentration of 10uM. It counts as ADME, Microsome.
The subject of data set [19] is Trypanosoma cruzi. Kind of data set: DNDI: Inhibition of Chagas Disease parasite Trypanosoma cruzi (Tulahuen LacZ, Clone C4), in vitro. It counts as functional, organism-based.
Data set [20] has as its system Trypanosoma brucei rhodesiense. Kind of data set: DNDI: Inhibition of Human African Trypanosomiasis (HAT), STIB 900, in vitro. It counts as functional, organism-based.
The subject of data set [21] is Leishmania donovani. The experiment in a line: DNDI: Inhibition of formation of Leishmania donovani (strain MHOM/ET/67/L82) axenic amastigotes, in vitro. Format: functional, organism-based.
The nature of data set [22]: DNDI: half life in human liver microsomes at a concentration of 10uM. Format: ADME, Microsome.
Data set [23] in a line: DNDI: half life in mouse liver microsomes at a concentration of 10uM. It counts as ADME, Microsome.
The mark [24] stands for this setting: Trypanosoma brucei, SBRI 427, read-out: IC50.

As for `CC1(C)[C@H]2CC[C@@H](CNCc3coc(-c4ccc(-c5ccccc5)cc4)n3)[C@@H]1C2`, the IC50 in data set [1] was 0.64 µg/mL (≈ 1.66 µM); in [5] it was 0.28 µg/mL and 0.72 µg/mL and 0.58 µg/mL. In addition, the IC50 at 72 h in [2] is under 3.13 µg/mL. The same compound had an IC50 at 24 h in data set [3] of 17.6 µg/mL (≈ 45.6 µM). The CLint in vitro in data set [4] is 25 µL/min/mg and 11 µL/min/mg. For the same compound, the “t (1 / 2)” value in data set [6] is 80 min and 34 min.

`CCCCCC(C)NCc1coc(-c2ccc(OC(CC)CC)cc2)n1` (configuration not stated) came in with an IC50 at 72 h in [2] of 0.85 µg/mL (≈ 2.37 µM). Besides, the CLint in vitro in data set [4] was 2 µL/min/mg. Moreover, the half-life at 1 µM in data set [7] worked out at 476 min. Also, in data set [8], the solubility (kinetic) came to 1 µM (≈ 0.359 µg/mL). The IC50 in data set [5] (setting [24]) is 0.36 µg/mL (≈ 1 µM). For the same compound, the MSD in data set [9] and in data set [10] was 4 days throughout.

`c1ccc(-c2ccc(-c3nc(CNC4CCCCCC4)co3)cc2)cc1`: the IC50 is 0.54 µg/mL (≈ 1.56 µM) in [1]; 0.27 µg/mL and 0.56 µg/mL and 0.41 µg/mL in data set [5]. The half-inhibitory concentration (IC50) at 72 h in data set [2] is under 3.13 µg/mL. The half-maximal inhibitory concentration (IC50) at 24 h in [3] was found to be 25.3 µg/mL (≈ 73.1 µM). In [4], the CLint in vitro is 4 µL/min/mg and 10 µL/min/mg. The “t (1 / 2)” value in data set [6] was 88 min and 237 min.

`CCCCCC(C)NCc1coc(-c2ccc(Oc3ccccc3)cc2)n1` (configuration not stated) came in with an IC50 at 72 h in data set [2] of 1.6 µg/mL (≈ 4.39 µM). Moreover, in [4], the CLint in vitro was 28 µL/min/mg. In addition, the half-life at 1 µM in data set [7] was 31 min. In data set [8], this compound had a solubility (kinetic) of 6 µM (≈ 2.19 µg/mL). The concentration for half-maximal inhibition (IC50) in data set [5] (setting [24]) was determined as 0.42 µg/mL (≈ 1.15 µM). Besides, in data set [11], the amount remaining at 1 µM was 0%. The compound also registered a chromatographic logD in data set [12] of 4.67. Besides, the fraction remaining at 1 h, 1 µM in data set [13] was determined as 59.9%.

Compound `CCCCc1ccc(-c2nc(CNCc3c(OC)cccc3OC)co2)cc1` yielded an IC50 at 72 h in data set [2] of 1.62 µg/mL (≈ 4.26 µM). The CLint in vitro in [4] was 65 µL/min/mg. In data set [7], this compound yielded a half-life at 1 µM of 13 min. The same compound yielded a solubility (kinetic) in data set [8] of 6 µM (≈ 2.28 µg/mL). The half-inhibitory concentration (IC50) in data set [5] (setting [24]) came to 0.32 µg/mL (≈ 0.841 µM). Further, the fraction remaining at 1 µM in data set [11] worked out at 0.169%. This compound returned an MSD in data set [10] of 4.5 days. In [12], the chromatographic logD was over 5.2. In data set [13], the amount remaining at 1 h, 1 µM stood at 18.7%.

Take `O/N=C(\NC1CCCCC1)c1ccccc1-c1ccccc1`: in data set [2], the half-maximal inhibitory concentration (IC50) at 72 h is over 10 µg/mL. In data set [3], this compound showed a 50% inhibitory concentration (IC50) at 24 h of 50 µg/mL (≈ 170 µM). The compound further came in with a solubility (kinetic) in [14] of 6.3 µM (≈ 1.85 µg/mL). The IC50 turned out to be 2.78 µg/mL (≈ 9.44 µM) in data set [15]; 41.7 µg/mL (≈ 142 µM) in [16]; 0.62 µg/mL (≈ 2.11 µM) in data set [5] (setting [24]); 7.25 µg/mL (≈ 24.6 µM) in [19]; 50.4 µg/mL (≈ 171 µM) in data set [20]; 27.6 µg/mL (≈ 93.7 µM) in data set [21]. Also, the CLint in vitro in data set [4] amounted to 119 µL/min/mg; in data set [18], 5 µL/min/mg. The compound further came in with a half-life at 1 µM in [7] of 7 min. For the same compound, the microsomal CLint at 10 µM in data set [17] turned out to be 51 µL/min/mg. Further, the share remaining at 1 µM in data set [11] was 0%. Moreover, in data set [12], the chromatographic logD stood at 4.53. The results for the half-life at 10 µM in data set [22] and in data set [23] were 557 min and 57 min, respectively. For the same compound, the fraction remaining at 1 h, 1 µM in [13] is 6.85%.

In the case of `CC(C)Oc1ccc(-c2nc(CNC3CCCCCC3)co2)cc1`, in data set [2], half-maximal inhibition (IC50 at 72 h) was put at 6.77 µg/mL (≈ 20.6 µM). In [4], this compound yielded a CLint in vitro of 12 µL/min/mg. The compound also gave a half-life at 1 µM in data set [7] of 68 min. Also, the concentration for half-maximal inhibition (IC50) in [5] (setting [24]) came to 2.39 µg/mL (≈ 7.28 µM). Also, the MSD in data set [9] and in data set [10] was 4 days in each case.

Turning to `CC1CC(NCc2coc(-c3ccc(-c4ccccc4)cc3)n2)CC(C)(C)C1` (configuration not stated), the half-inhibitory concentration (IC50) in data set [1] is 0.25 µg/mL (≈ 0.668 µM); in data set [5], 0.24 µg/mL and 0.16 µg/mL; in data set [5] (setting [24]) it was 0.27 µg/mL (≈ 0.721 µM). The compound also showed an IC50 at 72 h in data set [2] of under 3.13 µg/mL. In [3], this compound registered an IC50 at 24 h of 7.93 µg/mL (≈ 21.2 µM). Also, in [4], the CLint in vitro was determined as 6 µL/min/mg. The half-life at 1 µM in data set [7] turned out to be 154 min. In addition, the amount remaining at 1 µM in data set [11] is 105%. In data set [13], the amount remaining at 1 h, 1 µM came out at 112%.

`COc1ccccc1/C(=N/O)NC1CCCCC1`: the IC50 at 72 h in data set [2] was over 10 µg/mL. The compound also gave a concentration for half-maximal inhibition (IC50) at 24 h in data set [3] of over 50 µg/mL. This compound registered a kinetic solubility in data set [14] of over 200 µM. Besides, the IC50 was 3.7 µg/mL (≈ 14.9 µM) in [15]; 62.3 µg/mL (≈ 251 µM) in data set [16]; 0.52 µg/mL (≈ 2.09 µM) in data set [5] (setting [24]); over 30 µg/mL in data set [19]; 7.46 µg/mL (≈ 30 µM) in data set [20]; 17 µg/mL (≈ 68.5 µM) in data set [21]. In addition, the results for the CLint in vitro in data set [4] and in data set [18] were 40 µL/min/mg and 23 µL/min/mg, respectively. The same compound yielded a half-life at 1 µM in data set [7] of 21 min. Further, in data set [17], the microsomal CLint at 10 µM turned out to be 91 µL/min/mg. The amount remaining at 1 µM in data set [11] amounted to 0%. In addition, the chromatographic logD in [12] turned out to be 3.6. The half-life at 10 µM worked out at 128 min in data set [22] and 32 min in data set [23]. In data set [13], the amount remaining at 1 h, 1 µM came out at 1.05%.

The IC50 is the concentration at which inhibition is half-maximal. What is called half-life is how long it takes for the measured level to halve. Higher therefore signals slow loss. In general, kinetic solubility refers to the concentration staying in solution when a stock, usually in DMSO, is diluted into the medium. As usually defined, the chromatographic logD is a lipophilicity value derived from retention on a column. The low end stands for lower lipophilicity, the high end for higher lipophilicity.
